Experimental data taken from patent US8178543B2, “Bi- and tricyclic fused pyrimidines as tyrosine kinase inhibitors” (Takeda Pharmaceutical Company Limited, priority 2004, dated 2012).

tested on: human breast cancer cell BT-474; test: Inhibitory action on breast cancer cell BT-474 proliferation in vitro; assay type: cell-based; conditions: 120 h, BT-474 cells, cultured 5 days, SRB staining
Method: A suspension of human breast cancer cell BT-474 (100 μl (6,000 cells)) were sown to a 96-well microplate and cultured in an incubator (37° C., 5% carbon dioxide). On the following day, 100 μl of a solution of each test compound, which was previously diluted 2-fold, was added, and the cells were cultured for 5 days. After the culture medium containing the test compound was removed, the cells were washed and fixed with 50% trichloroacetic acid, after which a 0.4% (w/v) SRB solution (dissolved in 1% acetic acid) was added to fix and stain the cell protein (Skehan et al., Journal of the National Cancer Institute, Vol. 82, pp. 1107-1112, 1990). After washing with a 1% acetic acid solution, 100 μl of an extract (10 mM Tris solution) was added to extract the pigment, and absorbance was measured at an absorption wavelength of 550 nm to quantify the amount of cells as protein content. Taking as 100% the protein content for the control group, which received no test compound solution, the ratio of the residual protein content for each treatment group was determined, and the compound concentration required to achieve 50% suppression of the residual cell content relative to the control (IC50 value) was calculated.

Row | IC50 | Compound
1 | < 100 nM | CN(C)C/C=C/C(=O)NCc1cc2ncnc(Nc3ccc(OCc4cccc(F)c4)c(Cl)c3)c2[nH]1 [Example 82, (2E)-N-{[4-({3-chloro-4-[(3-fluorobenzyl)oxy]phenyl}amino)-5H-pyrrolo[3,2-d]pyrimidin-6-yl]methyl}-4-(dimethylamino)but-2-enamide]

biological target: T1, EGF receptor intracellular domain protein (Homo sapiens, UniProt P00533); test: Determination of EGF receptor kinase inhibitory activity; assay type: biochemical; conditions: 1.0 μM test compound; biotinyl-poly-Glu:Tyr (4:1), AlphaScreen, 25° C., 10 min; read-out: EGF receptor kinase Inhibitory rate (%) at 1.0 μM
T1 construct: encoding EGF receptor intracellular domain region, so that the protein contains an N-terminal Flag tag; made in house; host or cells: SF-21 insect cells, recombinant baculovirus BAC-EGFR
T1 sequence (P00533 669-1210 limits assumed): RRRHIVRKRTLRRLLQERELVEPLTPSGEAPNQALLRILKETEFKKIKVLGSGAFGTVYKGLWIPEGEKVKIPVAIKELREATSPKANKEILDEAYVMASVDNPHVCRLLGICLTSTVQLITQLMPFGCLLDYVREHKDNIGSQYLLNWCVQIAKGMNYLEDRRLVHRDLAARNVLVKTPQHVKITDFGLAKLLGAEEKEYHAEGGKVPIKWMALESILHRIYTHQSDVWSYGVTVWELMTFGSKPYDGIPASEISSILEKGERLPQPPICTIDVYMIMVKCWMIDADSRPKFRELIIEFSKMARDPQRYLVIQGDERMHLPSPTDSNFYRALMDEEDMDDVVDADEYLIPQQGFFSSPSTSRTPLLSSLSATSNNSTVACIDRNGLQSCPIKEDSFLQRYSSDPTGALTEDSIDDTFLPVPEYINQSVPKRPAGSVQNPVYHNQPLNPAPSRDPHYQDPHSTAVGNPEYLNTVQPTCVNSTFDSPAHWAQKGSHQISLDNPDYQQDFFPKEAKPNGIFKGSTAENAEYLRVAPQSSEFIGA
Method: Human EGF receptor gene was cloned by RT-PCR using total RNA prepared from A431 cells as a template. The primer for RT-PCR was prepared from nucleotide sequence (Genbank Accession XM—167493) information of EGF receptor gene by adding a nucleotide sequence encoding flag peptide and a restriction enzyme recognition sequence to a nucleotide sequence (2182-3810 of Genbank Accession XM—167493) encoding EGF receptor intracellular domain region, so that the protein contains an N-terminal Flag tag. The primer nucleotide sequence is shown below.
The RT reaction was conducted using SuperScript First-Strand Synthesis System for RT-PCR (Invitrogen) and the PCR reaction was conducted using a KOD-plus kit (TOYOBO). The obtained PCR product was electrophoresed on agarose gel (1%), the DNA fragment amplified by PCR was recovered from the gel, and then digested with restriction enzymes Sal I and Sph I. The DNA treated with the restriction enzymes was electrophoresed on agarose gel (1%), and the obtained DNA fragment was recovered and ligated to plasmid pFASTBAC1 (Invitrogen) digested with restriction enzymes Sal I and Sph I to give expression plasmid pFB-EGFR. The nucleotide sequence of insertion fragment was confirmed and found to be identical with the nucleotide sequence (2182-3810 of Genbank Accession XM—167493) of EGFR intracellular domain. Furthermore, using BAC-TO-BAC Baculovirus Expression System (Invitrogen), virus stock BAC-EGFR of recombinant baculovirus was prepared.
SF-21 cells were sown at 1×10^6 cells/mL to Sf-900II SFM medium (1 L, Invitrogen) containing 10% fetal bovine serum (trace), 50 mg/L gentamicin (Invitrogen) and 0.1% Pluronic F-68 (Invitrogen), and shaking culture was performed using a 2 L volume Erlenmeyer flask at 27° C., 100 rpm. After culturing for 24 hrs, recombinant baculovirus BAC-EGFR (13.4 mL) was added, and the mixture was further cultured for 3 days. The culture medium was centrifuged at 2,000 rpm for 5 min. to give virus-infected cells. The infected cells were washed with a phosphate buffered saline (Invitrogen), centrifuged under the same conditions, and the cells were preserved at −80° C. The cryopreserved cells were thawed in ice, suspended in buffer A (50 mM Tris buffer (30 mL, pH7.4) containing 20% glycerol, 0.15 M NaCl) supplemented with Complete Protease Inhibitor (Boehringer), and ruptured 3 times with a Polytron homogenizer (Kinematica) at 20,000 rpm for 30 sec. The ruptured medium was clarified by centrifugation at 40,000 rpm for 30 min. and filtered with a 0.45 μm filter. The filtrate was passed through a column packed with Anti-FLAG M2 Affinity Gel (4 mL, Sigma) at a flow rate of about 0.5 mL/min. The column was washed with buffer A, and eluted with buffer A containing 100 μg/mL of FLAG peptide. The eluate was concentrated with Vivaspin 20 (Vivascience) having a molecular weight cut off of 30K. The buffer of this concentrate was exchanged using NAPE 25 column (Amersham Bioscience) equilibrated with buffer A. The fractions containing EGF receptor intracellular domain protein were collected, glycerol was added to the final concentration of 50% and cryopreserved at −80° C.
A test compound dissolved in dimethyl sulfoxide (DMSO) was diluted with a buffer (50 mM Tris-HCl (pH 7.5), 5 mM MgCl2, 5 mM MnCl2, 2 mM dithiothreitol, 0.01% Tween-20). To this compound solution (5 μL) was added a buffer (10 μL) containing 250 ng/mL of EGF receptor intracellular domain protein and 250 ng/mL of biotin labeled polypeptide biotinyl-poly-Glu:Tyr (4:1) (CIS bio International). […]

Row | Compound | inhibition at 1 µM
2 | CS(=O)(=O)CC(=O)NCCn1ccc2ncnc(Nc3ccc(Oc4cccc(C(F)(F)F)c4)c(Cl)c3)c21 [Example 160, N-{2-[4-({3-chloro-4-[3-(trifluoromethyl)phenoxy]phenyl}amino)-5H-pyrrolo[3,2-d]pyrimidin-5-yl]ethyl}-2-(methylsulfonyl)acetamide] | 97%
3 | Cn1c(/C=C/CO)cc2ncnc(Nc3ccc(OCc4cccc(F)c4)c(Cl)c3)c21 [Example 22, (2E)-3-[4-({3-chloro-4-[(3-fluorobenzyl)oxy]phenyl}amino)-5-methyl-5H-pyrrolo[3,2-d]pyrimidin-6-yl]-2-propen-1-ol] | 98.5%

Results, then the compound that gave them:

Row | inhibition at 1 µM | Compound
4 | 99% | OCCOCCn1ccc2ncnc(Nc3ccc(OCc4cccc(F)c4)c(Cl)c3)c21 [Example 138, 2-{2-[4-({3-chloro-4-[(3-fluorobenzyl)oxy]phenyl}amino)-5H-pyrrolo[3,2-d]pyrimidin-5-yl]ethoxy}ethanol]
5 | 96% | OCCOCCn1ccc2ncnc(Nc3ccc(Oc4cccc(C(F)(F)F)c4)c(Cl)c3)c21 [Example 147, 2-{2-[4-({3-Chloro-4-[3-(trifluoromethyl)phenoxy]phenyl}amino)-5H-pyrrolo[3,2-d]pyrimidin-5-yl]ethoxy}ethanol]
6 | 98.9% | OCCn1ccc2ncnc(Nc3ccc(OCc4cccc(F)c4)c(Cl)c3)c21 [Example 41, 2-[4-({3-chloro-4-[(3-fluorobenzyl)oxy]phenyl}amino)-5H-pyrrolo[3,2-d]pyrimidin-5-yl]ethanol]

biological target: T2, HER2 intracellular domain (Homo sapiens, UniProt P04626); test: Determination of HER2 kinase inhibitory activity; assay type: biochemical; conditions: 1.0 μM test compound; poly-Glu:Tyr (4:1) substrate, [γ-32P]ATP, 25° C., 10 min; read-out: HER2 kinase Inhibitory rate (%) at 1.0 μM
T2 construct: made in house; host or cells: SF-21 insect cells, recombinant baculovirus BAC-HER2
T2 sequence (P04626 676-1255 limits assumed): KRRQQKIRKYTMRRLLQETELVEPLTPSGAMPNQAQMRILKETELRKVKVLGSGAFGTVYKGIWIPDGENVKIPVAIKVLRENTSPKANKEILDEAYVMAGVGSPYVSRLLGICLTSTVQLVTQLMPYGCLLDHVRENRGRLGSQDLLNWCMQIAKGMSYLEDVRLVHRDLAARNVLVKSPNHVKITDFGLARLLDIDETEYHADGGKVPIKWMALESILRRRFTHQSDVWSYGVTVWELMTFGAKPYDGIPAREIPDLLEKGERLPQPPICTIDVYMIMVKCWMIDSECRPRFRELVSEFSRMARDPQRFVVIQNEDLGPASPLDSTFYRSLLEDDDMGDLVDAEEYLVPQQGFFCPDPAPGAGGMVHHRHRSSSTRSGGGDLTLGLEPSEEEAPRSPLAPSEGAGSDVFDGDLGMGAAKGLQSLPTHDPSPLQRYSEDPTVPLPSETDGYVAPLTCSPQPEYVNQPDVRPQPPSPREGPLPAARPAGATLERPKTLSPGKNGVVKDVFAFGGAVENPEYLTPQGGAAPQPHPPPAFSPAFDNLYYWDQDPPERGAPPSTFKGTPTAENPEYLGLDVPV
Method: Human HER2 gene was cloned by RT-PCR using total RNA prepared from MCF7 cells as a template. The primer used for RT-PCR was prepared from nucleotide sequence (Genbank Accession M11730) information of HER2 gene by adding a nucleotide sequence encoding flag peptide and a restriction enzyme recognition sequence to a nucleotide sequence (2176-3918 of Genbank Accession M11730) encoding the HER2 intracellular domain region, so that the protein contains an N-terminal Flag tag. The primer nucleotide sequence is shown below.
The RT reaction was conducted using SuperScript First-Strand Synthesis System for RT-PCR (Invitrogen) and the PCR reaction was conducted using a KOD-plus kit (TOYOBO). The obtained PCR product was electrophoresed on agarose gel (1%), the DNA fragment amplified by PCR was recovered from the gel, and then digested with restriction enzymes Sal I and Sph I. The DNA treated with the restriction enzymes was electrophoresed on agarose gel (1%), and the obtained DNA fragment was recovered and ligated to plasmid pFASTBAC1 (Invitrogen) digested with restriction enzymes Sal I and Sph I to give expression plasmid pFB-HER2. The nucleotide sequence of the insertion fragment was confirmed and found to be identical with the nucleotide sequence (2176-3918 of Genbank Accession M11730) of HER2 intracellular domain. Furthermore, using BAC-TO-BAC Baculovirus Expression System (Invitrogen), recombinant baculovirus BAC-HER2 was prepared.
SF-21 cells were sown at 1×10^6 cells/mL to Sf-900II SFM medium (1 L, Invitrogen) containing 10% fetal bovine serum (trace), 50 mg/L gentamicin (Invitrogen) and 0.1% Pluronic F-68 (Invitrogen), and shaking culture was performed using a 2 L volume Erlenmeyer flask at 27° C., 100 rpm. After culturing for 24 hrs, recombinant baculovirus BAC-HER2 (13.4 mL) was added, and the mixture was further cultured for 3 days. The culture medium was centrifuged at 2,000 rpm for 5 min. to give virus-infected cells. The infected cells were washed with a phosphate buffered saline (Invitrogen), centrifuged under the same conditions, and the cells were preserved at −80° C. The cryopreserved cells were thawed in ice, suspended in buffer A (50 mM Tris buffer (30 mL, pH 7.4) containing 20% glycerol, 0.15 M NaCl) supplemented with Complete Protease Inhibitor (Boehringer), and ruptured 3 times with a Polytron homogenizer (Kinematica) at 20,000 rpm for 30 sec. The rupture medium was clarified by centrifugation at 40,000 rpm for 30 min. and filtered with a 0.45 μm filter. The filtrate was passed through a column packed with Anti-FLAG M2 Affinity Gel (4 mL, Sigma) at a flow rate of about 0.5 mL/min. The column was washed with buffer A, and eluted with buffer A containing 100 μg/mL of FLAG peptide. The eluate was concentrated with Vivaspin 20 (Vivascience) having a molecular weight cut off of 30K. The concentrate was purified by gel filtration using Hi Load Superdex 200 pg 16/60 (Amersham Bioscience) equilibrated with buffer A. The fractions containing HER2 intracellular domain were collected, glycerol was added to the final concentration of 50% and cryopreserved at −80° C.
A test compound dissolved in dimethyl sulfoxide (DMSO) was diluted with a buffer for kinase reaction (50 mM Tris-HCl (pH7.5), 5 mM MgCl2, 5 mM MnCl2, 2 mM dithiothreitol, 0.01% Tween-20). To this compound solution (10 μL) was added a buffer for kinase reaction (20 μL) containing 5 μg/mL of HER2 intracellular domain obtained in Experimental Example 1B and 12.5 μg/mL of polypeptide substrate poly-Glu:Tyr (4:1) (Sigma). To the obtained mixture was added 20 μL of ATP solution (1.25 μM ATP, 0.05 μCi [γ-^32P]ATP), the mixture was allowed to react at 25° C. for 10 min. and the reaction was quenched with 50 μL of 20% TCA solution. The reaction solution was allowed to stand at 4° C. for 20 min., and the acid insoluble fraction was transferred to GF/C filter (PerkinElmer) using cell harvester (PerkinElmer) and washed with 250 mM phosphoric acid solution. […]

Row | Compound | inhibition at 1 µM
7 | Cn1ccc2ncnc(Nc3ccc(OCc4cccc(F)c4)c(Cl)c3)c21 [Example 39, N-{3-chloro-4-[(3-fluorobenzyl)oxy]phenyl}-5-methyl-5H-pyrrolo[3,2-d]pyrimidin-4-amine] | 96.1%
8 | CC(C)(O)CC(=O)NCCn1ccc2ncnc(Nc3ccc(Oc4cccc(C(F)(F)F)c4)c(Cl)c3)c21 [Example 158, N-{2-[4-({3-chloro-4-[3-(trifluoromethyl)phenoxy]phenyl}amino)-5H-pyrrolo[3,2-d]pyrimidin-5-yl]ethyl}-3-hydroxy-3-methylbutanamide] | 87%
9 | CS(=O)(=O)CC(=O)NCCn1ccc2ncnc(Nc3ccc(Oc4cccc(Cl)c4)c(Cl)c3)c21 [Example 191, N-[2-(4-{[3-chloro-4-(3-chlorophenoxy)phenyl]amino}-5H-pyrrolo[3,2-d]pyrimidin-5-yl)ethyl]-2-(methylsulfonyl)acetamide] | 100%
10 | CCOCCn1ccc2ncnc(Nc3ccc(OCc4cccc(F)c4)c(Cl)c3)c21 [Example 38, N-{3-chloro-4-[(3-fluorobenzyl)oxy]phenyl}-5-(2-ethoxyethyl)-5H-pyrrolo[3,2-d]pyrimidin-4-amine] | 95.9%

Continued, values first:

Row | inhibition at 1 µM | Compound
11 | 95.9% | Cc1cc(Nc2ncnc3ccn(CCNC(=O)CS(C)(=O)=O)c23)ccc1Oc1cccc(OC(F)(F)F)c1 [Example 190, 2-(methylsulfonyl)-N-{2-[4-({3-methyl-4-[3-(trifluoromethoxy)phenoxy]phenyl}amino)-5H-pyrrolo[3,2-d]pyrimidin-5-yl]ethyl}acetamide]
12 | 94.9% | Cc1ccc(Oc2ccc(Nc3ncnc4cc(/C=C/CO)[nH]c34)cc2C)cn1 [Example 13, (2E)-3-[4-({3-methyl-4-[(6-methylpyridin-3-yl)oxy]phenyl}amino)-5H-pyrrolo[3,2-d]pyrimidin-6-yl]-2-propen-1-ol]
